Source: patent US7144862B2, “Orally administered peptides to ameliorate atherosclerosis” (The Regents of the University of California, priority 2000, dated 2006)
In brackets after ≈: the same amount, converted by molar mass. Several values for one entry are separate records, joined by “and”; a condition that tells them apart may be missing. Equal entries are not always repeated. Entries after “also recorded” stand apart in the source; their conditions may differ. Where two headings read alike, the source gives them in different places. Non-standard residues stand in square brackets, D forms with d. Residues, ends and D or L forms follow the SMILES beside them.

Tests used:
[1] = tested on: human artery wall cell cocultures; test: Lipoproteins from mice given peptide by gavage tested in human artery wall cell cocultures (monocyte chemotactic activity)
Description: Groups of LDL receptor-deficient mice (n=3) were administered the D-peptides or the saline vehicle by gavage. […] Blood was collected from retroorbital sinus under mild anesthesia 17 hrs later. LDL was isolated from plasma by FPLC. Cocultures of artery wall cells were incubated with medium alone (NO ADDITION), control LDL from normal subjects (LDL), LDL plus control HDL from normal subjects (+HDL). […] The cocultures were incubated for 4 hrs at 37° C. in the presence of 10% LPDS. The supernatants were then discarded, the cocultures were washed and incubated with culture medium without serum or LPDS for an additional 4 hrs. This conditioned medium was collected and analyzed for monocyte chemotactic activity. The values are mean±SD of quadruplicate cocultures.
Blood was collect after 6 hrs, plasma HDL and LDL were isolated by gel filtration (FPLC) and examined in the cocultures. […] Human LDL at 200 μg protein/ml was added to human artery wall cell cocultures together with human HDL (hHDL) at 350 μg protein/ml or mouse HDL (mHDL) at 100 μg cholesterol/ml taken from mice that received saline (Saline Rx) or L-4F (L-4F Rx) or D-4F (D-4F Rx) and monocyte chemotactic activity was determined as described herein. […] On the right, mouse LDL (mLDL) was isolated from mice receiving saline (Saline Rx) or L-4F (L4F Rx) or D-4F (D-4F Rx) and was added at 100 μg cholesterol/ml to the artery wall cell cocultures without HDL and monocyte chemotactic activity determined. Values are mean±SD) for four wells in two independent experiments.
Either saline or 2F synthesized from D amino acids or from L amino acids was instilled in the stomachs of mice by gavage (instillation in the stomach by tube). After gavage the mice were bled and their LDL isolated and added to the human artery wall cell cocultures.
The animals were bled 1.5, 3 or 6 hours later and their HDL, LDL, and VLDL/IDL isolated.
Human aortic endothelial and smooth muscle cells were isolated and cultured as previously described (Id.). Cellular oxidation of LDL in the presence and absence of HDL was determined as described (Id.). Human blood monocytes were isolated after obtaining informed consent and monocyte chemotaxis was determined as described previously^5.

[2] = DSC, bilayer to hexagonal phase transition of DiPoPE; format: physicochemical; conditions: heating scan rate 37°/h
Description: (§1) A known amount of phospholipid was dissolved in chloroform. For one set of samples, peptide was dissolved in methanol and added to a solution of DiPoPE in chloroforn/methanol (2:1, v:v). For both, pure lipid samples and the organic solutions of lipid and peptide, solvent was removed under a slow stream of nitrogen. Residual solvent was removed under vacuum. […] For DMPC, four consecutive scans with a 60 minute equilibration time between scans were taken. DSC thermograms were analyzed using the software provided by MicroCal Inc., Amherst, Mass., and Origin, version 5.0.
In the current study we prepared the peptide-lipid mixtures in two ways. One was by adding the peptide in organic solvent to the lipid in organic solvent followed by depositing the material as a film and subsequently hydrating with buffer. In the other method, the peptide and lipid were mixed after each was hydrated separately. If the mixture comes to equilibrium prior to the DSC analysis, it should not matter how the peptide and lipid are originally mixed. However, membrane systems can equilibrate slowly, in which case there may be more peptide in the lipid when it was incorporated at high concentrations into the lipid film.

[3] = Surface pressure measurements: monolayer exclusion pressure; format: physicochemical; conditions: EPC monolayer; reproducibility ± 1 dyn/cm
Description: An insoluble monolayer of egg phosphatidylcholine (EPC) was spread at the air-water interface in a Teflon dish at room temperature to give an initial surface pressure (πi) in the range of 5–45 dyn/cm. A solution of peptides in PBS containing 1.5M Gdn. HCl was carefully injected in to the subphase to give a final concentration of 50 μg/dL. The Gdn. HCl was diluted in the subphase to a final concentration of ≦1 mM to allow the peptides to renature. The subphase was stirred continuously and the increase in EPC monolayer surface pressure (Δπ) was recorded until a steady state value was obtained. The value of the initial surface pressure (πi) at which the peptides no longer penetrate the EYPC monolayer i.e. the exclusion pressure (πe), was calculated by extrapolating the πi vs Δπ linear regression fit to Δπ=0 dyn/cm.

[4] = DSC, chain melting transition of DMPC; format: physicochemical; conditions: DMPC/peptide 100:1 (mol/mol); for TCM(° C.): 1.5 mM DMPC, chain melting transition temperature; for ΔHCM (kcals/mol): enthalpy of the transition; for ΔT1/2 (° C.): width at half maximum of the transition
Description: as §1
The effect of these 18A analogues on the chain melting transition of multilamellar vesicles of DMPC was studied by DSC using peptide-lipid mixtures at 100:1 lipid/peptide molar ratio.

[5] = Right angle light scattering, dissolution of EPC MLVs; format: physicochemical; conditions: 105 μM EPC, equimolar peptide; for clarification of EPC MLVs: 25° C., 30 min
Description: EPC MLVs were prepared by evaporating a solution of EPC (Avanti Polar, AL) under nitrogen and hydrating the lipid film with phosphate-buffered saline (pH 7.4). […] Turbidity clarification was monitored for 30 min.

[6] = Circular dichroism, percent helicity; format: physicochemical; conditions: for Percent Helicity PBS: 11 μM peptide in PBS; for Percent Helicity DMPC: 11 μM peptide, Peptide: DMPC 1:20 (mol/mol)
Description: Briefly, spectra were obtained using a cell with a 0.1 cm path length and measurements were taken every nm from 260 nm to 190 nm at 25° C. All the CD spectra were signal averaged by adding four scans, base line corrected and smoothed. Peptide solutions in PBS, pH 7.4, were used at a concentration of 11 μM. Peptide-DMPC complexes (1:20 mol:mol) were used to determine the effect of lipid binding on the helicity of these peptides. These complexes were prepared by adding the appropriate volume of peptide solution to DMPC multilamellar vesicles. DMPC multilamellar vesicles were prepared as follows: A known amount of lipid was dissolved in ethanol and the solvent was removed by evaporating slowly under a thin stream of nitrogen. Residual solvent was removed by storing the lipid film under vacuum overnight. An appropriate volume of PBS, pH 7.4 was added to the thin lipid film to give the required final concentration of DMPC.

[7] = Solubility in PBS; format: physicochemical
Description: The peptides were purified on a preparative Vydac C4 column by reversed-phase (RP)-HPLC using water (with 0.1% trifluoroacetic acid) and acetonitrile (0.1% trifluoroacetic acid). The purity and the retention times of the peptides were determined on an analytical Vydac C18 column using a gradient of 25%-58% acetonitrile in water containing 0.1% TFA. The purity of these peptides was also confirmed by mass spectrometry. The mass was in agreement with the calculated molecular weight. Although both the 3F peptides and 4F have additional Phe residues compared to 2F, the retention times of these peptides on the C18 column are not very different (˜22 min). A sudden increase in the retention time is apparent with 5F, 6F and 7F (˜26 min). With increasing number of Phe residues, the solubility of these peptides in PBS decreases.

[8] = tested on: human artery wall cell cocultures; test: LDL-induced monocyte chemotactic activity with the homologous series of peptides (Example 3); format: cell-based; conditions: peptide at 100 μg/ml, LDL 250 μg protein/ml, 8 h
Description: Microtitre plates were treated with 0.1% gelatin at 37° C. overnight. HASMC were added at a confluent density of 1×10^5 cells/cm^2. […] HAEC were subsequently added at 2×10^5 cells/cm^2 and were allowed to grow, forming a complete monolayer of confluent HAEC in two days. In all experiments, HAEC and autologous HASMC (from the same donor) were used at passage levels of four to six. […] The cocultures were treated with native LDL(250 μg protein/ml) or presence of HDL (350 μg protein/ml) or peptides for 8 h.

[9] = tested on: Human aortic wall cocultures; test: LDL plus peptide in vitro in human aortic wall cocultures, monocyte chemotactic activity (Example 2); format: cell-based; conditions: control LDL 250 μg/ml plus varying amounts of peptide
Description: Human aortic wall cocultures were incubated with medium alone (LDL, NO CELLS or CELLS, NO LDL, see FIG. 9), control LDL from normal subjects at 250 μg/ml (LDL) and LDL plus control HDL from normal subjects at 350 μg/ml (+HDL). Other cocultures were incubated With the control LDL together with varying amounts (micrograms shown on the abscissa) of either D-2F, or L-2F (third panel from the left, 2F) or D-37-pA or L-37pA (last panel on the right, 37pA). The data represent mean±SD of values obtained from quadruplicate cocultures.

[10] = mouse, in vivo
Description: The 5F peptide, MoAI, and human apo A-I were labeled with ^125I by the method of Bilheimer et al. (1972) Biochim. Biophys. Acta 260: 212–221. Mice were placed on a modified Thomas-Hartroft atherogenic diet (#TD88051; Teklad, Madison, Wis.) for four weeks at which time daily intraperitoneal injections of peptide or protein dissolved in 200 μl phosphate-buffered saline (PBS) were begun. Animals injected with MoAI or human apo A-I received 50 μg per animal; those injected with 5F received 20 μg. Animals were not fasted for the kinetic studies and blood samples were taken under xylazine:ketamine anesthesia from the retro-orbital sinus at 15, 30, and 45 minutes, and 1, 1.5, 2, 3, 4, 6, 8, 12, and 24 hours following injection. Each animal provided three blood samples at different time points (all retro-orbital and alternating eyes), and at least three samples were collected (from different animals) at each time point. Samples were collected into heparinized capillary tubes, then placed in microcentrifuge tubes; the plasma was separated by centrifugation. Duplicate 10 μl aliquots of each sample were taken for radioactivity determination, using gamma counting (Cobra; Packard Instruments, Downers Grove, Ill.) for 10 minutes per sample. Total plasma volume was calculated as 4.2% body weight. Each sample was expressed as percent of injected CPM in total plasma. Free ^125I was determined by trichloroacetic acid (TCA) precipitation (1 ml of 10% TCA per 10 μl plasma sample). Fitting to the kinetic model was done using all data points, rather than averages at each time point (PKAnalyst, MicroMath Scientific Software, Salt Lake City, Utah).
Treatment groups were compared by two-tailed t-tests or one way analysis of variance (where the data were normally distributed), or by one way analysis of variance on ranks (SigmaStat; SPSS Science, Chicago, Ill.). Kinetics of peptide or protein turnover were analyzed by fitting to a first order one-compartment kinetic model assuming non-equal input and output rates (PKAnalyst; MicroMath Scientific Software, Salt Lake City, Utah).

[11] = 5F, 100 μg per animal by oral gavage, LDL receptor null mice, blood after 6 hrs

Ac-DWLKAFYDKVFEKFKEFF-NH2 [Peptide L-5F, Ac-D-W-L-K-A-F-Y-D-K-V-F-E-K-F-K-E-F-F-NH2]
HDL protective capacity [1, 11]: but not L-5F rendered the HDL markedly more protective

Ac-DWLKAFYDKFFEKFKEFF-NH2 [Peptide 6F, Ac-D-W-L-K-A-F-Y-D-K-F-F-E-K-F-K-E-F-F-NH2]
shift in TH of DiPoPE with mol fraction of peptide [2]: do not significantly affect TH
Monolayer Exclusion Pressure(πc) [3]: 45 dyn/cm and 46 dyn/cm
TCM(° C.) [4]: 23.1 °C
ΔHCM (kcals/mol) [4]: 4.0 kcals/mol
ΔT1/2 (° C.) [4]: 0.5 °C
clarification of EPC MLVs [5]: clarified the EPC MLVs to a similar extents
Percent Helicity PBS [6]: 67%
Percent Helicity DMPC [6]: 50%
Solubility [7]: 0.03 mg/mL
solubility ([7]; Solubility (mg/ml)): 30 to 100 µg/mL
inhibition of LDL-induced monocyte chemotaxis [8]: significant and similar inhibition

Ac-DWFKAFYDKFFEKFKEFF-NH2 [Peptide 7F, Ac-D-W-F-K-A-F-Y-D-K-F-F-E-K-F-K-E-F-F-NH2]
shift in TH of DiPoPE with mol fraction of peptide [2]: do not significantly affect TH
Monolayer Exclusion Pressure(πc) [3]: 45 dyn/cm
TCM(° C.) [4]: 23.2 °C
ΔHCM (kcals/mol) [4]: 4.5 kcals/mol
ΔT1/2 (° C.) [4]: 0.5 °C
initial lag period in EPC MLV clearance [5]: ~300 s
time for 50% clearance of the turbidity of EPC MLVs [5]: longest time
clarification of EPC MLVs [5]: clarified the EPC MLVs to a similar extents
Percent Helicity PBS [6]: 58%
Percent Helicity DMPC [6]: 68%
inhibition of LDL-induced monocyte chemotaxis [8]: significantly less effective than peptides 4F, 5F and 6F

Ac-DWLKAFYDKVAEKLKEAF-NH2 [Peptide L-2F, Ac-D-W-L-K-A-F-Y-D-K-V-A-E-K-L-K-E-A-F-NH2]
monocyte chemotaxis induced by LDL from mice given 2F by gavage ([1]; D versus L form by gavage): readily induced monocyte chemotaxis
monocyte chemotactic activity induced by LDL treated with peptide in vitro [9]: significantly different from LDL; also recorded: equally able to block LDL oxidation and LDL-induced monocyte chemotactic activity

Human apo A-I: Human apo A-I is a 243 residue protein, major protein constituent of HDL
Monolayer Exclusion Pressure(πc) [3]: 34 dyn/cm
clarification of EPC MLVs [5]: does not clarify EPC MLVs
Solubility [7]: >2.0 mg/mL
Max. % in plasma [10]: 23.7%
Time (h) to max. CPM ([10]; ip): 3.61 h
T½ ([10]; ip): 15.6 h

H-DWLKAFYDKVAEKLKEAFPDWLKAFYDKVAEKLKEAF-OH [Peptide 37pA, DWLKAFYDKVAEKLKEAFPDWLKAFYDKVAEKLKEAF, reference compound]
Monolayer Exclusion Pressure(πc) [3]: 40 dyn/cm and 41 dyn/cm
solubility ([7]; in PBS, read-out: Solubility): > 2000 µg/mL

H-DWLKAFYDKVAEKLKEAF-OH [Peptide 18A, D-W-L-K-A-F-Y-D-K-V-A-E-K-L-K-E-A-F, reference compound]
Monolayer Exclusion Pressure(πc) [3]: 30 dyn/cm
solubility ([7]; in PBS, read-out: Solubility): > 2000 µg/mL

H-DWLKAFYDKVAEKLKEAFPDWLKAFYDKVAEKLKEAF-OH [Peptide L-37pA, reference compound]
monocyte chemotactic activity induced by LDL treated with peptide in vitro [9]: significantly different from LDL

CC(=O)N[C@H](CC(=O)O)C(=O)N[C@H](Cc1c[nH]c2ccccc12)C(=O)N[C@H](CC(C)C)C(=O)N[C@H](CCCCN)C(=O)N[C@H](C)C(=O)N[C@H](Cc1ccccc1)C(=O)N[C@H](Cc1ccc(O)cc1)C(=O)N[C@H](CC(=O)O)C(=O)N[C@H](CCCCN)C(=O)N[C@@H](C(=O)N[C@H](Cc1ccccc1)C(=O)N[C@H](CCC(=O)O)C(=O)N[C@H](CCCCN)C(=O)N[C@H](Cc1ccccc1)C(=O)N[C@H](CCCCN)C(=O)N[C@H](CCC(=O)O)C(=O)N[C@H](Cc1ccccc1)C(=O)N[C@H](Cc1ccccc1)C(N)=O)C(C)C [Peptide D-5F, Ac-D-W-L-K-A-F-Y-D-K-V-F-E-K-F-K-E-F-F-NH2] (Ac-[dD][dW][dL][dK][dA][dF][dY][dD][dK][dV][dF][dE][dK][dF][dK][dE][dF][dF]-NH2)
HDL protective capacity [1, 11]: markedly more protective
LDL resistance to oxidation [1, 11]: highly resistant to oxidation
monocyte chemotactic activity induced by mouse VLDL/IDL fraction ([1]; 50 micrograms by gavage, 3 hour time point): significantly less monocyte chemotactic activity
protection of control LDL by mouse HDL ([1]; 50 micrograms by gavage, HDL taken after 6 hours): slightly less
monocyte chemotactic activity induced by mouse LDL ([1]; 50 micrograms by gavage, after 3 h and 6 h): significantly less monocyte chemotactic activity

Ac-DWFKAFYDKVAEKLKEAF-NH2 [3F^3]
solubility ([7]; in PBS, read-out: Solubility): 1250 to 1400 µg/mL

CC(=O)N[C@@H](CC(=O)O)C(=O)N[C@@H](Cc1c[nH]c2ccccc12)C(=O)N[C@@H](Cc1ccccc1)C(=O)N[C@@H](CCCCN)C(=O)N[C@@H](C)C(=O)N[C@@H](Cc1ccccc1)C(=O)N[C@@H](Cc1ccc(O)cc1)C(=O)N[C@@H](CC(=O)O)C(=O)N[C@@H](CCCCN)C(=O)N[C@H](C(=O)N[C@@H](C)C(=O)N[C@@H](CCC(=O)O)C(=O)N[C@@H](CCCCN)C(=O)N[C@@H](Cc1ccccc1)C(=O)N[C@@H](CCCCN)C(=O)N[C@@H](CCC(=O)O)C(=O)N[C@@H](C)C(=O)N[C@@H](Cc1ccccc1)C(N)=O)C(C)C [Peptide 4F, Ac-D-W-F-K-A-F-Y-D-K-V-A-E-K-F-K-E-A-F-NH2]
shift in TH of DiPoPE with mol fraction of peptide [2]: more rapid increase is observed at lower peptide concentrations
Monolayer Exclusion Pressure(πc) [3]: 40 dyn/cm
TCM(° C.) [4]: 23.2 °C
ΔHCM (kcals/mol) [4]: 5.3 kcals/mol
ΔT1/2 (° C.) [4]: 0.4 °C
time for 50% clearance of the turbidity of EPC MLVs [5]: shortest
clarification of EPC MLVs [5]: most effective in clarifying EPC MLVs with activity similar to that of Triton X-100
Percent Helicity PBS [6]: 45%
Percent Helicity DMPC [6]: 44%
Solubility [7]: 1.30 mg/mL (≈ 563 µM)
solubility ([7]; Solubility (mg/ml)): 1250 to 1400 µg/mL (≈ 541 to 606 µM)
inhibition of LDL-induced monocyte chemotaxis [8]: significant and similar inhibition
